Where a name gives a salt, the structure may show the parent alone.

IC50 data for 24 compounds are collected here from patent publication US20200331850A1, “NOVEL SULFONAMIDE CARBOXAMIDE COMPOUNDS” (Inflazome Limited, priority 2017, published 2020).

For the assay, the target named is NLRP3 (Homo sapiens, UniProt Q96P20). Put plainly: THP-1 cells pyroptosis assay (LPS + nigericin, resazurin readout). In kind it is cell-based. Details: Seed THP-1 cells (25,000 cells/well) containing 1.0 μg/ml LPS in 40 μl of RPMI medium; host or cells: THP-1 cells, LPS-primed and nigericin-stimulated. Conditions: NLRP3 inhibitory activity in THP-1 cells, 1.0 μg/ml LPS, 5 μM nigericin. From the text:
It is well established that the activation of NLRP3 leads to cell pyroptosis and this feature plays an important part in the manifestation of clinical disease (Yan-gang Liu et al., Cell Death & Disease, 2017, 8(2), e2579; Alexander Wree et al., Hepatology, 2014, 59(3), 898-910; Alex Baldwin et al., Journal of Medicinal Chemistry, 2016, 59(5), 1691-1710; Ema Ozaki et al., Journal of Inflammation Research, 2015, 8, 15-27; Zhen Xie & Gang Zhao, Neuroimmunology Neuroinflammation, 2014, 1(2), 60-65; Mattia Cocco et al., Journal of Medicinal Chemistry, 2014, 57(24), 10366-10382; T. Satoh et al., Cell Death & Disease, 2013, 4, e644). Therefore, it is anticipated that inhibitors of NLRP3 will block pyroptosis, as well as the release of pro-inflammatory cytokines (e.g. IL-1β) from the cell. THP-1 cells (ATCC # TIB-202) were grown in RPMI containing L-glutamine (Gibco #11835) supplemented with 1 mM sodium pyruvate (Sigma # S8636) and penicillin (100 units/ml)/streptomycin (0.1 mg/ml) (Sigma # P4333) in 10% Fetal Bovine Serum (FBS) (Sigma # F0804). The cells were routinely passaged and grown to confluency (˜10^6 cells/ml). On the day of the experiment, THP-1 cells were harvested and resuspended into RPMI medium (without FBS). The cells were then counted and viability (>90%) checked by Trypan blue (Sigma # T8154). Appropriate dilutions were made to give a concentration of 625,000 cells/ml. To this diluted cell solution was added LPS (Sigma # L4524) to give a […] Final Assay Concentration (FAC). 40 μl of the final preparation was aliquoted into each well of a 96-well plate. The plate thus prepared was used for compound screening. The following method step-by-step assay was followed for compound screening. • 1. Seed THP-1 cells (25,000 cells/well) containing 1.0 μg/ml LPS in 40 μl of RPMI medium (without FBS) in 96-well, black walled, clear bottom cell culture plates coated with poly-D-lysine (VWR #734-0317) • 2. Add 5 μl compound (8 points half-log dilution, with 10 μM top dose) or vehicle (DMSO 0.1% FAC) to the appropriate wells • 3. […] Add 5 μl nigericin (Sigma # N7143) (FAC 5 μM) to all wells • 5. […] At the end of the incubation period, spin plates at 300×g for 3 mins and remove supernatant • 7. Then add 50 μl of resazurin (Sigma # R7017) (FAC 100 μM resazurin in RPMI medium without FBS) and incubate plates for a further 1-2 hrs at 37° C. and 5% CO2 • 8. Plates were read in an Envision reader at Ex 560 nm and Em 590 nm • 9. IC50 data is fitted to a non-linear regression equation (log inhibitor vs response-variable slope 4-parameters) The results of the pyroptosis assay performed are summarised in Table 1 below as THP IC50.

NLRP3, sequence (Q96P20 whole entry): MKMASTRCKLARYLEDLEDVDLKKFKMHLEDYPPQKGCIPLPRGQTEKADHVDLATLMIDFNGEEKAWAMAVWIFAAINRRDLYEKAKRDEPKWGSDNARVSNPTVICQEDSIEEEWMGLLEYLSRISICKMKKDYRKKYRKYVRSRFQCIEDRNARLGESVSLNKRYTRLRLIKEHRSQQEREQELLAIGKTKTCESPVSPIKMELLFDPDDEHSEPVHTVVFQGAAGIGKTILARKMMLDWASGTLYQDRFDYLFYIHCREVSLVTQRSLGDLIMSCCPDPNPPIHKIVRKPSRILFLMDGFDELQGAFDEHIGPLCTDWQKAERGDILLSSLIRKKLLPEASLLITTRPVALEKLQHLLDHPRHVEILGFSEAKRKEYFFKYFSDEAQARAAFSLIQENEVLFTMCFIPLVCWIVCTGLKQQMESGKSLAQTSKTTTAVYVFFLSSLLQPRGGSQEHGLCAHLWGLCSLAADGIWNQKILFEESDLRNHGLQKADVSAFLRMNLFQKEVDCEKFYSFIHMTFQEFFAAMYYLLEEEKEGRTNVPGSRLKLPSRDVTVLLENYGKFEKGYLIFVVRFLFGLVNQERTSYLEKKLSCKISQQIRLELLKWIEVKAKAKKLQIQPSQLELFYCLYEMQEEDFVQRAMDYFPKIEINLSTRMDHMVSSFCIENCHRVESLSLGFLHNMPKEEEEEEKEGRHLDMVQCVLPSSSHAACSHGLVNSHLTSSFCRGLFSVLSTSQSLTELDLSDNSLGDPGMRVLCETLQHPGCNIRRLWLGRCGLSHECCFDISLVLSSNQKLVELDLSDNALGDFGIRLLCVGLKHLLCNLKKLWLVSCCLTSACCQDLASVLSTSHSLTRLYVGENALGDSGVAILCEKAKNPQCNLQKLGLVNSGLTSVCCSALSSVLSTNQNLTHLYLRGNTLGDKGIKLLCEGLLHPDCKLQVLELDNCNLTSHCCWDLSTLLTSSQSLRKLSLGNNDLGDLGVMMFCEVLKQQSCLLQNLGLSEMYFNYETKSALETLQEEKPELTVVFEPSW

On to `CN(C)C1CCN(CCCS(=O)(=O)NC(=O)Nc2c3c(cc4c2CCC4)CCC3)CC1` [Example 2, 3-(4-(Dimethylamino)piperidin-1-yl)-N-((1,2,3,5,6,7-hexahydro-s-indacen-4-yl)carbamoyl)propane-1-sulfonamide, potassium salt], for which the half-inhibitory concentration (IC50) was 2000 to 10000 nM.

With `CC(=O)NCCS(=O)(=O)NC(=O)Nc1c2c(cc3c1CCC3)CCC2` [Example 6, N-(2-(N-((1,2,3,5,6,7-Hexahydro-s-indacen-4-yl)carbamoyl)sulfamoyl)ethyl)acetamide, Potassium Salt], the IC50 lay in the range of 2000 to 10000 nM.

Consider `O=C(Nc1c2c(cc3c1CCC3)CCC2)NS(=O)(=O)CCCCN1CCOCC1` [Example 9, N-((1,2,3,5,6,7-Hexahydro-s-indacen-4-yl)carbamoyl)-4-morpholinobutane-1-sulfonamide, Potassium Salt], for which the IC50 lay within 2000 to 10000 nM.

Consider `O=C(Nc1c2c(cc3c1CCC3)CCC2)NS(=O)(=O)CCCN1CCOCC1` [Example 15, N-((1,2,3,5,6,7-Hexahydro-s-indacen-4-yl)carbamoyl)-3-morpholinopropane-1-sulfonamide, Potassium Salt], for which the IC50 was in the range of 1600 to 2000 nM.

With `O=C(Nc1c2c(cc3c1CCC3)CCC2)NS(=O)(=O)CCCN1CCCCC1` [Example 16, N-((1,2,3,5,6,7-Hexahydro-s-indacen-4-yl)carbamoyl)-3-(piperidin-1-yl)propane-1-sulfonamide, Potassium Salt], the IC50 was 1600 to 2000 nM.

As to `CCN(CC)CCS(=O)(=O)NC(=O)Nc1c2c(cc3c1CCC3)CCC2` [Example 18, 2-(Diethylamino)-N-((1,2,3,5,6,7-hexahydro-s-indacen-4-yl)carbamoyl)ethane-1-sulfonamide, potassium salt], the IC50 lay within 2000 to 10000 nM.

`CN1CCC(CS(=O)(=O)NC(=O)Nc2c3c(cc4c2CCC4)CCC3)CC1` [Example 22, N-((1,2,3,5,6,7-Hexahydro-s-indacen-4-yl)carbamoyl)-1-(1-methylpiperidin-4-yl)methanesulfonamide, Potassium Salt]: the IC50 fell in the range of 2000 to 10000 nM.

`CC(C)N1CCC(CS(=O)(=O)NC(=O)Nc2c3c(cc4c2CCC4)CCC3)C1` (stereo not drawn) [Example 25, N-((1,2,3,5,6,7-Hexahydro-s-indacen-4-yl)carbamoyl)-1-(1-isopropylpyrrolidin-3-yl)methanesulfonamide, Potassium Salt]: the IC50 lay within 2000 to 10000 nM.

For the compound `CC(CN(C)C)S(=O)(=O)NC(=O)Nc1c2c(cc3c1CCC3)CCC2` (stereo not drawn) [Example 26, 1-(Dimethylamino)-N-((1,2,3,5,6,7-hexahydro-s-indacen-4-yl)carbamoyl)propane-2-sulfonamide, potassium salt], the IC50 was in the range of 2000 to 10000 nM.

For `CCN1CC2(CC(S(=O)(=O)NC(=O)Nc3c4c(cc5c3CCC5)CCC4)C2)C1` [Example 38, 2-Ethyl-N-((1,2,3,5,6,7-hexahydro-s-indacen-4-yl)carbamoyl)-2-azaspiro[3.3]heptane-6-sulfonamide, potassium salt], the IC50 fell in the range of 2000 to 10000 nM.

In the case of `CC(C)N1CC2(CC(S(=O)(=O)NC(=O)Nc3c4c(cc5c3CCC5)CCC4)C2)C1` [Example 39, N-((1,2,3,5,6,7-Hexahydro-s-indacen-4-yl)carbamoyl)-2-isopropyl-2-azaspiro[3.3]heptane-6-sulfonamide, potassium salt], the concentration for half-maximal inhibition (IC50) fell in the range of 2000 to 10000 nM.

Regarding `CN1CC2(CC(S(=O)(=O)NC(=O)Nc3c4c(cc5c3CCC5)CCC4)C2)C1` [Example 40, N-((1,2,3,5,6,7-Hexahydro-s-indacen-4-yl)carbamoyl)-2-methyl-2-azaspiro[3.3]heptane-6-sulfonamide, potassium salt], the IC50 was in the range of 2000 to 10000 nM.

For the compound `CCN(CCCS(=O)(=O)NC(=O)Nc1c(-c2ccnc(C#N)c2)cc(F)cc1C(C)C)Cc1ccccc1` [Example 46, 3-(Benzyl(ethyl)amino)-N-((2-(2-cyanopyridin-4-yl)-4-fluoro-6-isopropylphenyl)carbamoyl)propane-1-sulfonamide], the IC50 fell in the range of 2000 to 10000 nM.

Consider `COCCCS(=O)(=O)NC(=O)Nc1c(-c2ccnc(C#N)c2)cc(F)cc1C(C)C` [Example 49, N-((2-(2-Cyanopyridin-4-yl)-4-fluoro-6-isopropylphenyl)carbamoyl)-3-methoxypropane-1-sulfonamide], for which the IC50 is 2000 to 10000 nM.

With `COc1cc(-c2cc(F)cc(C(C)C)c2NC(=O)NS(=O)(=O)Cc2cccnc2)ccn1` [Example 54, N-((4-Fluoro-2-isopropyl-6-(2-methoxypyridin-4-yl)phenyl)carbamoyl)-1-(pyridin-3-yl)methanesulfonamide], the IC50 fell in the range of 2000 to 10000 nM.

Take `COc1cc(-c2ccc3c(c2NC(=O)NS(=O)(=O)Cc2cccnc2)CCC3)ccn1` [Example 55, N-((5-(2-Methoxypyridin-4-yl)-2,3-dihydro-1H-inden-4-yl)carbamoyl)-1-(pyridin-3-yl)methanesulfonamide]: the IC50 lay within 2000 to 10000 nM.

Regarding `O=C(Nc1c(-c2ccncc2)cc(F)c2c1CCC2)NS(=O)(=O)Cc1cccnc1` [Example 56, N-((7-Fluoro-5-(pyridin-4-yl)-2,3-dihydro-1H-inden-4-yl)carbamoyl)-1-(pyridin-3-yl)methanesulfonamide], the IC50 lay in the range of 2000 to 10000 nM.

Take `CC(C)c1cc(F)cc(-c2ccnc(C#N)c2)c1NC(=O)NS(=O)(=O)CC1CCN(C)C1` (stereo not drawn) [Example 57, N-((2-(2-Cyanopyridin-4-yl)-4-fluoro-6-isopropylphenyl)carbamoyl)-1-(1-methylpyrrolidin-3-yl)methanesulfonamide]: the IC50 was 2000 to 10000 nM.

Take `CN1CCC(CS(=O)(=O)NC(=O)Nc2c(-c3ccncc3)cc(F)c3c2CCC3)C1` (stereo not drawn) [Example 60, N-((7-Fluoro-5-(pyridin-4-yl)-2,3-dihydro-1H-inden-4-yl)carbamoyl)-1-(1-methylpyrrolidin-3-yl)methanesulfonamide]: the IC50 was in the range of 2000 to 10000 nM.

For `CCN(C(C)=O)C1CCC(S(=O)(=O)NC(=O)Nc2c3c(cc4c2CCC4)CCC3)CC1` (stereo not drawn) [Example 63, N-ethyl-N-(4-(N-((1,2,3,5,6,7-hexahydro-s-indacen-4-yl)carbamoyl)sulfamoyl)cyclohexyl)acetamide], the IC50 is 2000 to 10000 nM.

For the compound `O=C(Nc1c2c(cc3c1CCC3)CCC2)NS(=O)(=O)CC1CCN(C2COC2)C1` (stereo not drawn) [Example 64, N-((1,2,3,5,6,7-Hexahydro-s-indacen-4-yl)carbamoyl)-1-(1-(oxetan-3-yl)pyrrolidin-3-yl)methanesulfonamide, Potassium Salt], the IC50 lay in the range of 2000 to 10000 nM.

With `NCCCS(=O)(=O)NC(=O)Nc1c2c(cc3c1CCC3)CCC2` [Example 65, 3-Amino-N-((1,2,3,5,6,7-hexahydro-s-indacen-4-yl)carbamoyl) propane-1-sulfonamide potassium salt], the IC50 was in the range of 2000 to 10000 nM.

On to `C[N+](C)(C)CCCS(=O)(=O)NC(=O)Nc1c2c(cc3c1CCC3)CCC2` [Example 66, 3-(N-((1,2,3,5,6,7-Hexahydro-s-indacen-4-yl)carbamoyl)sulfamoyl)-N,N,N-trimethylpropan-1-aminium, Potassium Salt], for which the IC50 lay within 2000 to 10000 nM.

For `CC1(C)C2CC[C@@]1(CS(=O)(=O)NC(=O)Nc1c3c(cc4c1CCC4)CCC3)C(N)C2` (stereo partly drawn) [Example 85, 1-((1S)-2-Amino-7,7-dimethylbicyclo[2.2.1]heptan-1-yl)-N-((1,2,3,5,6,7-hexahydro-s-indacen-4-yl)carbamoyl)methanesulfonamide], the IC50 lay within 2000 to 10000 nM.

The term IC50 denotes the concentration needed to halve the response being measured.
